Broadly, the AUC(0-inf) is the area under the concentration-time curve extrapolated to infinity. Usually Cmax stands for the highest concentration seen after dosing. For orientation: half-life means the time needed for the level to fall by half in the phase considered. As usually defined, the bioavailability is dose-corrected exposure relative to a reference, in per cent. As usually defined, the Tmax is the time at which the peak concentration occurs.

The values that follow come from publication PMC12494099, “Discovery and Characterization of Novel IKZF1/3 Glue Degraders against Multiple Hematological Cancer Cell Lines” (Oncology Research, 2025).

One data set addresses T1, IKZF4 (Homo sapiens, UniProt Q9H2S9).
T1 construct: endogenous in cells; host or cells: NCI-H929
Description: MS-based quantitative proteomics in NCI-H929 cells. The following applies: NCI-H929, 10 μM, 4 h; not notably downregulated. Format: cell-based. On the procedure: (§1) NCI-H929 cells were treated with either 10 μM DMSO or 10 μM MGD-C9 for 4 h. Post-treatment, the cells were washed with PBS (pH = 7.2–7.4, 1×) and then lysed in 8M Urea (UA) (comprising 8M urea, 100 mM Tris-HCl, pH = 8.0). Subsequently, the cell lysate was subjected to centrifugation on a high-speed freezing microcentrifuge (#CF1524R; SCILOGEX, Meriden, CT, USA) at […], and the supernatant was collected. Subsequently, the collected supernatant was treated with 10 mM tris (2-carboxyethyl) phosphine hydrochloride (TCEP) to reduce it for 30 min. Following this, cysteine alkylation was performed using 50 mM 2-chloroacetamide (CAA) for an additional 30 min. The denatured proteins were then digested with trypsin (1 μg/μL) at an enzyme-to-protein ratio of 1:50 and incubated at 37°C overnight. The reaction was stopped by adding 0.1% formic acid (FA). The samples were desalted using 100 μL pipette tips packed with C18 discs (3M, Saint Paul, MN, USA). Prior to sample loading, the tips were conditioned sequentially with 80 μL of acetonitrile (ACN), followed by 80 μL of a 1:1 (v/v) mixture of H2O and ACN, and finally with 80 μL of H2O. The conditioned tips were loaded with peptides. Then, they were washed twice with 80 μL of H2O. After that, the peptides were eluted twice using 80 μL of a solution composed of 50% water and 50% acetonitrile (ACN). The resulting eluates were vacuum-dried and then reconstituted in 0.1% formic acid for the subsequent LC-MS/MS analysis.
(§2) The peptide mixtures were analyzed using an EASY-nLC 1200 liquid chromatography system (Thermo Fisher Scientific, WLM, MA, USA) equipped with a custom-made 15 cm C18 column (150 μm ID, 1.9 μm particle size, 100 Å pore size). Peptide separation was performed over a 75-min gradient at a constant flow rate of 600 nL/min. The gradient profile was as follows: 4%–7% buffer B (1 min), 7%–13% buffer B (6 min), 13%–25% buffer B (38 min), 25%–45% buffer B (22 min), 45%–95% buffer B (1 min), followed 95% buffer B (7-min). The buffers used were Buffer A (0.1% formic acid) and Buffer B (0.1% formic acid in 80% acetonitrile). The peptide mixtures were then analyzed using a Q Exactive HF mass spectrometer (Thermo Fisher Scientific). MS data were acquired in data-dependent acquisition (DDA) mode with a dynamic exclusion duration of 15 s. MS1 scans were acquired in positive-ion mode across a mass-to-charge (m/z) range of 300–1400, with a resolution of 120,000 (at m/z 200) and a maximum injection time of 50 ms. Precursor ions were fragmented using higher-energy collision dissociation (HCD) at 27% normalized collision energy. MS2 spectra were collected with an AGC target of 5.0 × 10^4 and a maximum injection time of 20 ms.
(§3) Label-free MS raw data were processed using MaxQuant (v2.4) against the UniProt Human database (https://www.uniprot.org/, downloaded May 2024; 20,434 entries). A strict false discovery rate (FDR) threshold of ≤0.01 was applied at the spectra, protein, and modification levels. Contaminants and reverse database hits were excluded. Default settings were used for all other parameters. Protein groups output by MaxQuant were further analyzed in R (v4.2.1). Student’s t-test, and p-values < 0.01 were considered statistically significant for statistical analyses and a volcano plot was generated with GraphPad Prism 8.0.

The target in another data set is T2, GSPT1 (Homo sapiens, UniProt P15170).
T2 construct: endogenous in cells; host or cells: NCI-H929
Description: MS-based quantitative proteomics in NCI-H929 cells. Format: cell-based. As to conditions: NCI-H929, 10 μM, 4 h; not notably downregulated. On the procedure:
as §1, §2, §3

Another data set addresses T3, IKZF3 (Homo sapiens, UniProt Q96SW2+Q9UKT9).
T3 construct: endogenous in cells; host or cells: NCI-H929
Description: MS-based quantitative proteomics in NCI-H929 cells. The format is cell-based. As to conditions: NCI-H929, 10 μM, 4 h. On the procedure:
as §1, §2, §3

The target of another data set is T4, CK1α (Homo sapiens, UniProt P48729).
T4 construct: endogenous in cells; host or cells: NCI-H929
Description: MS-based quantitative proteomics in NCI-H929 cells. Format: cell-based. The following applies: NCI-H929, 10 μM, 4 h; not notably downregulated. On the procedure: as §1, §2, §3

The target in another data set is T5, PLZF (Homo sapiens, UniProt Q05516).
T5 construct: endogenous in cells; host or cells: NCI-H929
Description: MS-based quantitative proteomics in NCI-H929 cells. Format: cell-based. The following applies: NCI-H929, 10 µM. As to the method: as §1, §2, §3

Another data set deals with T6, IKZF5 (Homo sapiens, UniProt Q9H5V7).
T6 construct: endogenous in cells; host or cells: NCI-H929
Description: MS-based quantitative proteomics in NCI-H929 cells. The format is cell-based. As to conditions: NCI-H929, 10 μM, 4 h; not notably downregulated. As to the method: as §1, §2, §3

A short description of data set [1]: Pharmacokinetic study in vivo. More on the design: species or system BALB/c mice. As to conditions: mice; for MRT inf: read-out: MRT0-inf. On the procedure:
BALB/c mice weighing 19–21 g were procured from Beijing Vital River Laboratory Animal Technology Co., Ltd. (Beijing, China). The animals were housed under conditions of constant temperature and humidity, with a 12-h light-dark cycle for lighting. The mice had free access to water and food but were fasted for 12 h before intragastric administration. This study has been approved by the Animal Care and Use Committee Ethics Committee of the National Beijing Center for Drug Safety Evaluation and Research; the approval number is IACUC-DWZX-2024-P557.
Six male BALB/c mice were randomly assigned to two groups, with three mice in each group. MGD-C9 was administered via intravenous (i.v., 2 mg/kg in a solution of 10% DMSO, 2% Tween 80% and 88% H2O) and oral (p.o., 50 mg/kg in the same vehicle) routes to assess its pharmacokinetic (PK) characteristics. Blood samples (0.05 mL) were collected into heparinized tubes at pre-dose and at 0, 0.0833-, 0.25-, 0.5-, 1-, 2-, 4-, 6-, 8-, and 24 h post-administration. Plasma samples were obtained by centrifuging the blood for 10 min.
The plasma supernatant was then stored at −80°C and thawed at room temperature for subsequent analysis. For preparation, 10 μL of plasma was mixed with 10 μL working solution, followed by protein precipitation with 50 μL acetonitrile containing propranolol hydrochloride internal standard (50 ng/mL). After vortexing (1 min) and centrifugation (18,800× g, 10 min, 4°C), the supernatant was collected, diluted two-fold with 50% acetonitrile/water (v/v), and mixed. MGD-C9 plasma concentrations were quantified by LC-MS/MS using Analyst 1.5.1 (Applied Biosystem, Shanghai, China).
Automated peak integration was performed for atlas samples. The peak area ratio (sample/internal standard) was used for concentration regression analysis, applying linear regression with 1/X^2 weighting. Pharmacokinetic parameters (AUC, t1/2, MRT) across administration routes, and Cmax/Tmax after oral dosing, were calculated via non-compartmental analysis using WinNonlin v6.3 (Pharsight, Lawrenceville, GA, USA).
Experimental data were presented as “Mean ± SD” (n = 3).

[2] abbreviates: male, BALB/c, mouse, plasma, iv, 2 mg/kg.
[3] abbreviates: male, BALB/c, mouse, plasma, po, 50 mg/kg.

Where two headings read alike, the source gives them in different places.

T3 sequence (Q9UKT9 whole entry): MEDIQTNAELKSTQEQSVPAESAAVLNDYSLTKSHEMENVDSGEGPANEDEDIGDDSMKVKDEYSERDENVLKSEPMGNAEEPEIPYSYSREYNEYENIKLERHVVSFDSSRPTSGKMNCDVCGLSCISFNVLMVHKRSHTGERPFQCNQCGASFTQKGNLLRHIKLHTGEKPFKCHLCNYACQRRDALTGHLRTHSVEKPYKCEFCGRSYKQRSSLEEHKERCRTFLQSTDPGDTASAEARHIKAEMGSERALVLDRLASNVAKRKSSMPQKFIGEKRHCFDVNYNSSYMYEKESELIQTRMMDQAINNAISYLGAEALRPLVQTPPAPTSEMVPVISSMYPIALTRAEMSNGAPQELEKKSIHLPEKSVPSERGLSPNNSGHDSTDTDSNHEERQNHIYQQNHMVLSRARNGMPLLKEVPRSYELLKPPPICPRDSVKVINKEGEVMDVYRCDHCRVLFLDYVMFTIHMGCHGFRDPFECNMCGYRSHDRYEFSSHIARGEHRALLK
T3 sequence (Q96SW2 whole entry): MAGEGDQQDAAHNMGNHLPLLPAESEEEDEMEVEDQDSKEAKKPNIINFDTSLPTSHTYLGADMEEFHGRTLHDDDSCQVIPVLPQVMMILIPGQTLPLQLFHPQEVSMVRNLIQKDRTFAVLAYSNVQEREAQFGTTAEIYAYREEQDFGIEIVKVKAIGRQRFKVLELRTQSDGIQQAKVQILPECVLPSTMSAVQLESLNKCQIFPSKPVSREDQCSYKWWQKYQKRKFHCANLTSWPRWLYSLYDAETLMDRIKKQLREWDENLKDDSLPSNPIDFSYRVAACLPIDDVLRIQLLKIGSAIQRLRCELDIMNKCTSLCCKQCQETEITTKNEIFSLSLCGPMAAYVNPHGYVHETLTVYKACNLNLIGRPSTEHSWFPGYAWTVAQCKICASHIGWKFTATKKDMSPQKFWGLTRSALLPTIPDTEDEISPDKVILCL
T3 sequence (Q16531 whole entry partner): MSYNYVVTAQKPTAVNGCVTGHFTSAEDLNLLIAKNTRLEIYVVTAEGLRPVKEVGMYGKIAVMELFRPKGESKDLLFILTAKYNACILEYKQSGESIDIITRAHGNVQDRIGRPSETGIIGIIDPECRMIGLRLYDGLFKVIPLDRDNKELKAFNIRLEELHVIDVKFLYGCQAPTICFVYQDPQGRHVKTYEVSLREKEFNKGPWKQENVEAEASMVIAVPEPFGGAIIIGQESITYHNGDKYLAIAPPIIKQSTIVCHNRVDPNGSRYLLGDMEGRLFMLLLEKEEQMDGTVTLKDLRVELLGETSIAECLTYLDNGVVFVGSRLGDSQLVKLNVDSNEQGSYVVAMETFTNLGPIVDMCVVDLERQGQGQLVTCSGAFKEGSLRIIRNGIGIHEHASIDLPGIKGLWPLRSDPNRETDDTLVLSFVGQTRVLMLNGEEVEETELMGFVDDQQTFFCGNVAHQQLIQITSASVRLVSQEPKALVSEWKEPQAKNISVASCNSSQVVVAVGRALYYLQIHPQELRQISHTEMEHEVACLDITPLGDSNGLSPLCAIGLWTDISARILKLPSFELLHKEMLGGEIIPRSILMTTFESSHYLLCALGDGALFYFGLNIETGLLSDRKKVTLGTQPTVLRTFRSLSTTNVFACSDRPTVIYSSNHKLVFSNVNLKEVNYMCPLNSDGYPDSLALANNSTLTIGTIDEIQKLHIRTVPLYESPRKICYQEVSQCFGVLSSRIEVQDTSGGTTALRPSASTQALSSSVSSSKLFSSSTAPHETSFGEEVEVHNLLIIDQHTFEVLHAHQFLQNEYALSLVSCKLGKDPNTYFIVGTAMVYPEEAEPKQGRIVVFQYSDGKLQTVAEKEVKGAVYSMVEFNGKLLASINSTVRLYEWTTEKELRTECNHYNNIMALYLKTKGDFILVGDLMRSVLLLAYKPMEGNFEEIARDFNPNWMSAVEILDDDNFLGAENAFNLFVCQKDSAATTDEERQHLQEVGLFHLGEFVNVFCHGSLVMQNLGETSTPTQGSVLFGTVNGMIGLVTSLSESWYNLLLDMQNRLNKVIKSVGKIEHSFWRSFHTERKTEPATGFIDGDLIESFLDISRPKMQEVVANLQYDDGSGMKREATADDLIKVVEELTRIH
T2 sequence (Q96SW2 whole entry partner): as the sequence (Q96SW2 whole entry) above
T2 sequence (Q16531 whole entry partner): as the sequence (Q16531 whole entry partner) above
T2 sequence (P15170 whole entry): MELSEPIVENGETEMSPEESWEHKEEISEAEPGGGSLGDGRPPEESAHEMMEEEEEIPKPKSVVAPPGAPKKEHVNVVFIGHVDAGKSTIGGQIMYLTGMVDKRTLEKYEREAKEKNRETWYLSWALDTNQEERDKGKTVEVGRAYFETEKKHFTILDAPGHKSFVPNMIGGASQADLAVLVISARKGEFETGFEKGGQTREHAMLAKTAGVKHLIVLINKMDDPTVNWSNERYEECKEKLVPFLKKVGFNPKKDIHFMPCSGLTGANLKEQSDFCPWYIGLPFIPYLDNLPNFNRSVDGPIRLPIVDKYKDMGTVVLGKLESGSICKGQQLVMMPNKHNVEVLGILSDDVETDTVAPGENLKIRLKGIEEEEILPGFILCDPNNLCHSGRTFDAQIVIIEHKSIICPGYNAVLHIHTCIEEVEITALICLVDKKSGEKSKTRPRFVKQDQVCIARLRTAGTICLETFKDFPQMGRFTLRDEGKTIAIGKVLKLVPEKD
T1 sequence (Q96SW2 whole entry partner): as the sequence (Q96SW2 whole entry) above
T1 sequence (Q16531 whole entry partner): as the sequence (Q16531 whole entry partner) above
T1 sequence (Q9H2S9 whole entry): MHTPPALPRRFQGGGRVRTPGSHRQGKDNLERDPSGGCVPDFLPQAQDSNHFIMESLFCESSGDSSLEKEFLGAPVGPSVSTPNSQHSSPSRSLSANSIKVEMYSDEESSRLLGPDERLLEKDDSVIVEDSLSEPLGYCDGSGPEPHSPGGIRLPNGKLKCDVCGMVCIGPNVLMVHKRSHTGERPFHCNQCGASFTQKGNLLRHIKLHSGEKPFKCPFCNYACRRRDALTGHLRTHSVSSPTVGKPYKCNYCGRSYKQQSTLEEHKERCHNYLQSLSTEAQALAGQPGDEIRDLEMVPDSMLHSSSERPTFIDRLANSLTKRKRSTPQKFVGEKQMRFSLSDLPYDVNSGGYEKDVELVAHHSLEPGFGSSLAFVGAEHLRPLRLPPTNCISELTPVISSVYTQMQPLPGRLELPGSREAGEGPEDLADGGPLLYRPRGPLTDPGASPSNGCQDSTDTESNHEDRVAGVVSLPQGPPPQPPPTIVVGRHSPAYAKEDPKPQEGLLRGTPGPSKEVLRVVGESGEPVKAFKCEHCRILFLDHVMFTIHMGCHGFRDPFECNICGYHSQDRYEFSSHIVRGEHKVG
T5 sequence (Q96SW2 whole entry partner): as the sequence (Q96SW2 whole entry) above
T5 sequence (Q16531 whole entry partner): as the sequence (Q16531 whole entry partner) above
T5 sequence (Q05516 whole entry): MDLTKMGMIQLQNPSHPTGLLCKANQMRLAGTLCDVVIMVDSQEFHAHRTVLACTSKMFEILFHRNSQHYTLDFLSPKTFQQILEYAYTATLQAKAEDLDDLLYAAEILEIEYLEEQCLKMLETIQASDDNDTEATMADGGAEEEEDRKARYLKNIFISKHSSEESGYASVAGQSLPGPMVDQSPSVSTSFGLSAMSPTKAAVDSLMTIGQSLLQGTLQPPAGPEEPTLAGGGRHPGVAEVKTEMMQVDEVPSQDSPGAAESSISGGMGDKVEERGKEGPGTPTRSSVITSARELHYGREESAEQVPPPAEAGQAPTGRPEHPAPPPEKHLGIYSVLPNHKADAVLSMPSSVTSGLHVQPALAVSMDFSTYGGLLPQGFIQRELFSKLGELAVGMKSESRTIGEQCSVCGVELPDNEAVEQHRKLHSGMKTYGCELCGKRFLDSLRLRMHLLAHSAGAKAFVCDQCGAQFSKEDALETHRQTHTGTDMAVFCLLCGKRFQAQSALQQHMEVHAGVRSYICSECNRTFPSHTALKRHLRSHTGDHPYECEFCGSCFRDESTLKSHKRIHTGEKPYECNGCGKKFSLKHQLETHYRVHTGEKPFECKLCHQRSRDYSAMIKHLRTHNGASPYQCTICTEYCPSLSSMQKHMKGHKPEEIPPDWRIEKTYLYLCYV
T6 sequence (Q96SW2 whole entry partner): as the sequence (Q96SW2 whole entry) above
T6 sequence (Q16531 whole entry partner): as the sequence (Q16531 whole entry partner) above
T6 sequence (Q9H5V7 whole entry): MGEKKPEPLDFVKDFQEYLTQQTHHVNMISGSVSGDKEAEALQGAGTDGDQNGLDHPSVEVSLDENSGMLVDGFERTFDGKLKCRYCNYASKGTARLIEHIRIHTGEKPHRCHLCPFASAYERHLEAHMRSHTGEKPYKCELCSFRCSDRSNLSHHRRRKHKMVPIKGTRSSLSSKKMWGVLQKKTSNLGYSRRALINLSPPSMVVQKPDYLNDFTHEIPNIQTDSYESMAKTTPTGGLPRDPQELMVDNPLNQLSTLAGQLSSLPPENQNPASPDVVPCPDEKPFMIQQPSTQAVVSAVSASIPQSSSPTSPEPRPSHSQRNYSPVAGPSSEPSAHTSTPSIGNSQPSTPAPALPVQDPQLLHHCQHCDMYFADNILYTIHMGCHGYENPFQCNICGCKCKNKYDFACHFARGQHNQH

Turning to `CN1CCN(Cc2cccc(C(=O)NC3CCC(=O)NC3=O)c2F)C(=O)C1` (stereo not drawn) [MGD-C9, N-(2,6-dioxopiperidin-3-yl)-2-fluoro-3-((4-methyl-2-oxopiperazin-1-yl)methyl)benzamide], at IKZF4, the “absolute [log2(fold change)] of IKZF4” value was “less than 1”. In addition, at GSPT1, the “absolute [log2(fold change)] of GSPT1” value is given as “less than 1”. Also, the “reduction of IKZF3 (proteomics)” value at IKZF3 was around 80.2%. Besides, the “absolute [log2(fold change)] of CK1α” value at CK1α is recorded as “less than 1”. Moreover, the “PLZF level (proteomics)” value at PLZF is listed as “remained unaffected”. In addition, the “absolute [log2(fold change)] of IKZF5” value at IKZF5 is on record as “less than 1”. In data set [1] (setting [2]), the AUC(0-inf) worked out at 1360 ± 190 ng·h/mL, the highest concentration (Cmax) amounted to 3690 ± 713 ng/mL and the half-life is 12 ± 4.2 min. Further, the MRT inf in data set [1] (male, BALB/c, mouse, plasma, iv, i.v., 2 mg/kg) is 15.6 ± 7.2 min. Moreover, the Vd in data set [1] (male, BALB/c, mouse, plasma, iv, i.v., 2 mg/kg, read-out: Vz) was determined as 0.42 ± 0.14 L/kg. Further, the bioavailability in data set [1] (male, BALB/c, mouse, plasma, oral, p.o. 50 mg/kg vs i.v. 2 mg/kg, read-out: F (oral bioavailability)) was 33.5%. Also, in data set [1] (setting [3]), the Tmax was around 30 min, the total exposure AUC(0-inf) was 11400 ± 553 ng·h/mL, the concentration peaked (Cmax) at 5590 ± 222 ng/mL and the half-life is 53.4 ± 13.8 min. Moreover, in data set [1] (male, BALB/c, mouse, plasma, po, p.o., 50 mg/kg), the MRT inf is 90.6 ± 10.2 min. In addition, the “Vz” value in data set [1] (p.o., 50 mg/kg) came to 5.62 ± 1.23 L/kg.
